pKi: −log10 of the molar value.

5-hydroxytryptamine receptor 6, sequence (P50406 whole entry): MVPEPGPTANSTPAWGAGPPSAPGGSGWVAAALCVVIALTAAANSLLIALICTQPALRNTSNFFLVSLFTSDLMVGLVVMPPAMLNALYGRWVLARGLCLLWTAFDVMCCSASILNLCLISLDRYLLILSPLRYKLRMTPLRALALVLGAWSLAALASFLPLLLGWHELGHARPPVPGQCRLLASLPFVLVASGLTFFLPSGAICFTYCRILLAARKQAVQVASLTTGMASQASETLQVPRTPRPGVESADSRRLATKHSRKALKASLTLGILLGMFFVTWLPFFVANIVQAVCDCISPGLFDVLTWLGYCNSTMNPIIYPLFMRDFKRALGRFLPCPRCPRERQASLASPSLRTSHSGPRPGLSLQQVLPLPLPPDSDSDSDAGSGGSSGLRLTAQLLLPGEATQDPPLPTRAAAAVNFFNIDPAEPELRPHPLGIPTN
D(2) dopamine receptor, sequence (P14416 whole entry): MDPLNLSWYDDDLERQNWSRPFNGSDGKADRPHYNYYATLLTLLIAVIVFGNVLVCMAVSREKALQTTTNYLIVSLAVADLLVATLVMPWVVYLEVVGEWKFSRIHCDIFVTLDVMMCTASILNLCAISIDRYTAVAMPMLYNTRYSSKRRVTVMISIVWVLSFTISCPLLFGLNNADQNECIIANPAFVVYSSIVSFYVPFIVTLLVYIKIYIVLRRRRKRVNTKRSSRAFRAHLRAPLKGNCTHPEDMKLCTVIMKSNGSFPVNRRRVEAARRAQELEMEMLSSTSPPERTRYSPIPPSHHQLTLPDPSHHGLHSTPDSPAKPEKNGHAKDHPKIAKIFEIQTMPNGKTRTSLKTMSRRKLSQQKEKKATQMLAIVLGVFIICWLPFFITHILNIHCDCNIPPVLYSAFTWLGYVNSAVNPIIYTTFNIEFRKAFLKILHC

One assay deals with 5-hydroxytryptamine receptor 7 (Homo sapiens, UniProt P34969). Put plainly: Displacement of [3H]-5CT from human 5HT7 receptor expressed in HEK293 cells after 1 hr. The class given is cell-based. (Displacement assays read how much labelled ligand stays bound in the presence of the test substance.)
5-hydroxytryptamine receptor 7, sequence (P34969 whole entry): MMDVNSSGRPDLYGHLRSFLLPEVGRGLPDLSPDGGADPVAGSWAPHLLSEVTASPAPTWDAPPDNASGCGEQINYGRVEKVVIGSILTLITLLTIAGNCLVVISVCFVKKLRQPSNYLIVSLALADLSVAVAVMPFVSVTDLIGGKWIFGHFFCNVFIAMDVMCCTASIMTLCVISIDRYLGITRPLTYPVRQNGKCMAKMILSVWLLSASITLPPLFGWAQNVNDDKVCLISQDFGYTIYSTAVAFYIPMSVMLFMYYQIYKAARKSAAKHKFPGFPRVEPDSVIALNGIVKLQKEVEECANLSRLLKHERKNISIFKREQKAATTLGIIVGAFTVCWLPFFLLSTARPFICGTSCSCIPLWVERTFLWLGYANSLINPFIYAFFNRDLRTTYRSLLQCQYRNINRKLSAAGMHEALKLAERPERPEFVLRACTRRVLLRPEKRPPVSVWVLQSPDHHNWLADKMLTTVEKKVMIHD
In turn, `O=C1CC(c2c[nH]c3ccccc23)C(=O)N1CCN1CCC(c2c[nH]c3ccc(F)cc23)CC1` (racemic) gave a pKi of 5.93.
`O=C1CC(c2c[nH]c3ccccc23)C(=O)N1CCCCN1CCC(c2c[nH]c3ccc(F)cc23)CC1` (racemic) showed a pKi of 6.71. This pKi is 0.78 log units higher than that of the compound before.
Still for that read-out and setting: to `COc1ccc2[nH]cc(C3CCN(CCCCN4C(=O)CC(c5c[nH]c6ccccc56)C4=O)CC3)c2c1` (racemic) belongs 6.46.

A further assay concerns the target 5-hydroxytryptamine receptor 6 (Homo sapiens, UniProt P50406). Nature of the assay: Displacement of [3H]-LSD from human 5HT6 receptor expressed in HEK293 cells after 1 hr. In kind it is cell-based.
Compound `O=C1CC(c2c[nH]c3ccccc23)C(=O)N1CCN1CCC(c2c[nH]c3ccc(F)cc23)CC1` (racemic) showed a pKi of 5.94.
The same measure, in the same setting: as for `O=C1CC(c2c[nH]c3ccccc23)C(=O)N1CCCCN1CCC(c2c[nH]c3ccc(F)cc23)CC1` (racemic), the figure is 7.20; as for `COc1ccc2[nH]cc(C3CCN(CCCCN4C(=O)CC(c5c[nH]c6ccccc56)C4=O)CC3)c2c1` (racemic), 6.80.

Another assay has as its target D(2) dopamine receptor (Homo sapiens, UniProt P14416). Nature of the assay: Displacement of [3H]-raclopride from human dopamine D2L receptor expressed in HEK293 cells after 1 hr. In kind it is cell-based.
The compound `O=C1CC(c2c[nH]c3ccccc23)C(=O)N1CCN1CCC(c2c[nH]c3ccc(F)cc23)CC1` (racemic) gave a pKi of 7.10.
Still for that read-out and setting: as for `O=C1CC(c2c[nH]c3ccccc23)C(=O)N1CCCCN1CCC(c2c[nH]c3ccc(F)cc23)CC1` (racemic), the figure is 7.85; as for `COc1ccc2[nH]cc(C3CCN(CCCCN4C(=O)CC(c5c[nH]c6ccccc56)C4=O)CC3)c2c1` (racemic), 6.79.

The target in another assay is 5-hydroxytryptamine receptor 2A (Rattus norvegicus, UniProt P14842). Nature of the assay: Displacement of [3H]-ketanserin from 5HT2A in rat cerebral cortex 20 mins by liquid scintillation counting analysis. In kind it is tissue-based.
5-hydroxytryptamine receptor 2A, sequence (P14842 whole entry): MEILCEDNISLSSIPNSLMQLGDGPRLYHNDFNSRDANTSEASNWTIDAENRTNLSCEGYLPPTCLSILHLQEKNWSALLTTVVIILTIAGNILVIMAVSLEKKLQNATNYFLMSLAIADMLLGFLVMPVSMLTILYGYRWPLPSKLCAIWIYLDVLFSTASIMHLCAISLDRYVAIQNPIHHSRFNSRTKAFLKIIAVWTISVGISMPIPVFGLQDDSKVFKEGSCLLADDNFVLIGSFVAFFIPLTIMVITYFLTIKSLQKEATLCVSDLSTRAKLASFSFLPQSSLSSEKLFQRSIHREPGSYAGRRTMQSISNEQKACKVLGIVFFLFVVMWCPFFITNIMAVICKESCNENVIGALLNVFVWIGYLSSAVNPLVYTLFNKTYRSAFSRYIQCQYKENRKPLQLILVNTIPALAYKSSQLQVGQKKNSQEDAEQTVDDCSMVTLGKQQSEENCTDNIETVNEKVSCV
Take `O=C1CC(c2c[nH]c3ccccc23)C(=O)N1CCN1CCC(c2c[nH]c3ccc(F)cc23)CC1` (racemic): the pKi is 6.42.
The same measure, in the same setting: to `O=C1CC(c2c[nH]c3ccccc23)C(=O)N1CCCCN1CCC(c2c[nH]c3ccc(F)cc23)CC1` (racemic) belongs 7.15; to `COc1ccc2[nH]cc(C3CCN(CCCCN4C(=O)CC(c5c[nH]c6ccccc56)C4=O)CC3)c2c1` (racemic), 6.30.

In a further assay the target is Sodium-dependent serotonin transporter (Rattus norvegicus, UniProt P31652). Put plainly: Displacement of [3H]-citalopram from SERT in rat cerebral cortex after 1 hr by liquid scintillation counting analysis. In kind it is tissue-based.
Sodium-dependent serotonin transporter, sequence (P31652 whole entry): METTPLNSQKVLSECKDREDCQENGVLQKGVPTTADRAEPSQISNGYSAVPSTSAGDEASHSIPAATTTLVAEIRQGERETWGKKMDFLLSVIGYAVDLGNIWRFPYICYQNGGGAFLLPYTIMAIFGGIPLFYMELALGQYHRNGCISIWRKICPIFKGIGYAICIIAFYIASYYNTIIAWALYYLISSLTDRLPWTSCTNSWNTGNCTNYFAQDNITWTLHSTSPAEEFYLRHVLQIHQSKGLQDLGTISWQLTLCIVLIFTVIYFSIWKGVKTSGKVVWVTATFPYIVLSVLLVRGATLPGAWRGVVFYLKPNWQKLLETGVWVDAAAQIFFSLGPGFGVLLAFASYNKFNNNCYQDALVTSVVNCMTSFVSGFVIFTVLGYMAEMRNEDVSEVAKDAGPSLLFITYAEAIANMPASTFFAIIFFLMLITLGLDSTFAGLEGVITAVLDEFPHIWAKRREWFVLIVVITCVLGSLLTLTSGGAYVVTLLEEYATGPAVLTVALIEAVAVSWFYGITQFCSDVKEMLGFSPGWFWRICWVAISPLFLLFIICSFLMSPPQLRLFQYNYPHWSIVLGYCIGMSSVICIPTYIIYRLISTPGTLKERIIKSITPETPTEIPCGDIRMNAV
For `O=C1CC(c2c[nH]c3ccccc23)C(=O)N1CCCN1CCC(c2c[nH]c3ccc(F)cc23)CC1` (racemic), the pKi is 6.67.
The compound `O=C1CC(c2c[nH]c3ccccc23)C(=O)N1CCN1CCC(c2c[nH]c3ccccc23)CC1` (racemic) showed a pKi of 7.25.
Compound `O=C1CC(c2c[nH]c3ccccc23)C(=O)N1CCN1CCC(c2c[nH]c3ccc(F)cc23)CC1` (racemic) gave a pKi of 6.42.
In the case of `COc1ccc2[nH]cc(C3CCN(CCN4C(=O)CC(c5c[nH]c6ccccc56)C4=O)CC3)c2c1` (racemic), the pKi is 5.73. Against the preceding compound, the pKi is 0.69 log units lower.
The same measure, in the same setting: to `O=C1CC(c2c[nH]c3ccccc23)C(=O)N1CCCCN1CCC(c2c[nH]c3ccc(F)cc23)CC1` (racemic) belongs 6.30.
Still for that read-out and setting: to `COc1ccc2[nH]cc(C3CCN(CCCCN4C(=O)CC(c5c[nH]c6ccccc56)C4=O)CC3)c2c1` (racemic) belongs 6.68.

For a further assay, the target named is T1, 5-hydroxytryptamine receptor 1A (Rattus norvegicus, UniProt P19327).
T1 sequence (P19327 whole entry): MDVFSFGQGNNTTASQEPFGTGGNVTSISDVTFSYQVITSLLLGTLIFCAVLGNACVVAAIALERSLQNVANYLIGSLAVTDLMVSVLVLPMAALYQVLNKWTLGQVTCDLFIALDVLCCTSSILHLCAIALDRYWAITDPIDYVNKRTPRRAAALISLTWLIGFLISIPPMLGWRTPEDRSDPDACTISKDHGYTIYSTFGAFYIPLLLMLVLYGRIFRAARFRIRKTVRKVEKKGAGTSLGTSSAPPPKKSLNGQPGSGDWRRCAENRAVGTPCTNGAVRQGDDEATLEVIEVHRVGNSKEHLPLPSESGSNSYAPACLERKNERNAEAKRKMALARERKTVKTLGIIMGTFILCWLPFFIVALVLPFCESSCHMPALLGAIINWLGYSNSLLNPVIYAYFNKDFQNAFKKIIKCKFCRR
Put plainly: Displacement of [3H]-8-OH-DPAT from 5HT1A receptor in rat hippocampal membranes after 20 mins. In kind it is cell membranes, Hippocampus, Membrane.
In the case of `O=C1CC(c2c[nH]c3ccccc23)C(=O)N1CCCN1CCC(c2c[nH]c3ccc(F)cc23)CC1` (racemic), the negative-log Ki (pKi) is 6.92.
The same measure, in the same setting: to `O=C1CC(c2c[nH]c3ccccc23)C(=O)N1CCN1CCC(c2c[nH]c3ccccc23)CC1` (racemic) belongs 6.44.
On the same count and under the same terms, as for `O=C1CC(c2c[nH]c3ccccc23)C(=O)N1CCN1CCC(c2c[nH]c3ccc(F)cc23)CC1` (racemic), the figure is 8.09; as for `COc1ccc2[nH]cc(C3CCN(CCN4C(=O)CC(c5c[nH]c6ccccc56)C4=O)CC3)c2c1` (racemic), 6.45; as for `O=C1CC(c2c[nH]c3ccccc23)C(=O)N1CCCCN1CCC(c2c[nH]c3ccc(F)cc23)CC1` (racemic), 8.12.
On the same count and under the same terms, to `COc1ccc2[nH]cc(C3CCN(CCCCN4C(=O)CC(c5c[nH]c6ccccc56)C4=O)CC3)c2c1` (racemic) belongs 8.66.

As a reminder, the pKi is −log10 of the Ki, conventionally taken in molar units.

The values are drawn from ChEMBL document CHEMBL2375249, “Synthesis and biological evaluation of novel pyrrolidine-2,5-dione derivatives as potential antidepressant agents. Part 1” (Eur J Med Chem, 2013).
